Measurements as given in ChEMBL document CHEMBL3885881, “DrugMatrix”.

Organism: Rattus norvegicus
Assay: DrugMatrix - Regimen: Daily Repeat
Format: toxicity, organism-based, Sprague-Dawley
Parameters: regimen Daily Repeat, gender Male, age 6-8 weeks
Conditions: in vivo, po, route oral GAVAGE, vehicle 100 % WATER; for ABSOLUTE BASOPHIL / ABSOLUTE EOSINOPHIL / ABSOLUTE LYMPHOCYTE / ABSOLUTE MONOCYTE / ABSOLUTE SEGMENTED NEUTROPHIL / BASOPHIL / EOSINOPHIL / ERYTHROCYTE COUNT / HEMATOCRIT / HEMOGLOBIN / LEUKOCYTE COUNT / LYMPHOCYTE / MEAN CORPUSCULAR HEMOGLOBIN / MEAN CORPUSCULAR HEMOGLOBIN CONCENTRATION / MEAN CORPUSCULAR VOLUME / MONOCYTE / NEUTROPHIL / NUCLEATED RED BLOOD CELLS / PLATELET COUNT: tissue Blood; for ALANINE AMINOTRANSFERASE / ALBUMIN / ALKALINE PHOSPHATASE / ASPARTATE AMINOTRANSFERASE / BLOOD UREA NITROGEN / CARBON DIOXIDE / CHLORIDE / CHOLESTEROL / CREATINE PHOSPHOKINASE / CREATININE / GLUCOSE / LACTATE DEHYDROGENASE / LIPASE / PHOSPHORUS / POTASSIUM / SODIUM / TOTAL BILIRUBIN / TOTAL PROTEIN / URIC ACID: tissue Plasma
[1] = 30 mg/kg, 120 h, dose level Low, time 5 day
[2] = 3000 mg/kg, 72 h, dose level High, time 3 day
[3] = 3000 mg/kg, 120 h, dose level High, time 5 day

CC1COc2c(N3CCN(C)CC3)c(F)cc3c(=O)c(C(=O)O)cn1c23 (centres undefined) [OFLOXACIN]
ABSOLUTE BASOPHIL [1]: 0 CELLS/uL
ABSOLUTE EOSINOPHIL [1]: 0 CELLS/uL
ABSOLUTE LYMPHOCYTE [1]: 11457 CELLS/uL
ABSOLUTE MONOCYTE [1]: 48.33 CELLS/uL
ABSOLUTE SEGMENTED NEUTROPHIL [1]: 1361.33 CELLS/uL
BASOPHIL [1]: 0%
EOSINOPHIL [1]: 0%
ERYTHROCYTE COUNT [1]: 5.63 x10E6/uL
HEMATOCRIT [1]: 35.6%
HEMOGLOBIN [1]: 14.27 G/DL
LEUKOCYTE COUNT [1]: 12.87 x10E3/uL
LYMPHOCYTE [1]: 89%
MEAN CORPUSCULAR HEMOGLOBIN [1]: 25.37 pg
MEAN CORPUSCULAR HEMOGLOBIN CONCENTRATION [1]: 40.07 G/DL
MEAN CORPUSCULAR VOLUME [1]: 63.23 fL
MONOCYTE [1]: 0.33%
NEUTROPHIL [1]: 10.67%
NUCLEATED RED BLOOD CELLS [1]: 0 /100WBC
PLATELET COUNT [1]: 1227 x10E3/uL
ALANINE AMINOTRANSFERASE [1]: 50 u/L
ALBUMIN [1]: 4.2 G/DL
ALKALINE PHOSPHATASE [1]: 350.67 u/L
ASPARTATE AMINOTRANSFERASE [1]: 79 u/L
BLOOD UREA NITROGEN [1]: 13.67 mg/dL
CARBON DIOXIDE [1]: 33.67 mmol/L
CHLORIDE [1]: 101.33 MEQ/L
CHOLESTEROL [1]: 68.33 mg/dL
CREATINE PHOSPHOKINASE [1]: 179.33 u/L
CREATININE [1]: 0.19 mg/dL
GLUCOSE [1]: 155.67 mg/dL
LACTATE DEHYDROGENASE [1]: 144 u/L
LIPASE [1]: 12.33 u/L
PHOSPHORUS [1]: 11.93 mg/dL
POTASSIUM [1]: 6.45 MEQ/L
SODIUM [1]: 144.3 MEQ/L
TOTAL BILIRUBIN [1]: 0.13 mg/dL
TOTAL PROTEIN [1]: 5.9 G/DL
URIC ACID [1]: 1.4 mg/dL
ABSOLUTE BASOPHIL [2]: 0 CELLS/uL
ABSOLUTE EOSINOPHIL [2]: 96.33 CELLS/uL
ABSOLUTE LYMPHOCYTE [2]: 13060.67 CELLS/uL
ABSOLUTE MONOCYTE [2]: 229.33 CELLS/uL
ABSOLUTE SEGMENTED NEUTROPHIL [2]: 680.33 CELLS/uL
BASOPHIL [2]: 0%
EOSINOPHIL [2]: 0.67%
ERYTHROCYTE COUNT [2]: 5.79 x10E6/uL
HEMATOCRIT [2]: 36.3%
HEMOGLOBIN [2]: 14.37 G/DL
LEUKOCYTE COUNT [2]: 14.07 x10E3/uL
LYMPHOCYTE [2]: 92.67%
MEAN CORPUSCULAR HEMOGLOBIN [2]: 24.83 pg
MEAN CORPUSCULAR HEMOGLOBIN CONCENTRATION [2]: 39.57 G/DL
MEAN CORPUSCULAR VOLUME [2]: 62.7 fL
MONOCYTE [2]: 1.67%
NEUTROPHIL [2]: 5%
NUCLEATED RED BLOOD CELLS [2]: 0 /100WBC
PLATELET COUNT [2]: 1277.33 x10E3/uL
ALANINE AMINOTRANSFERASE [2]: 62.33 u/L
ALBUMIN [2]: 3.93 G/DL
ALKALINE PHOSPHATASE [2]: 286.33 u/L
ASPARTATE AMINOTRANSFERASE [2]: 99.33 u/L
BLOOD UREA NITROGEN [2]: 13.33 mg/dL
CARBON DIOXIDE [2]: 22.33 mmol/L
CHLORIDE [2]: 105.33 MEQ/L
CHOLESTEROL [2]: 67 mg/dL
CREATINE PHOSPHOKINASE [2]: 1225.67 u/L
CREATININE [2]: 0.2 mg/dL
GLUCOSE [2]: 162.33 mg/dL
LACTATE DEHYDROGENASE [2]: 245 u/L
LIPASE [2]: 9.67 u/L
PHOSPHORUS [2]: 11.1 mg/dL
POTASSIUM [2]: 5.42 MEQ/L
SODIUM [2]: 145.2 MEQ/L
TOTAL BILIRUBIN [2]: 0.17 mg/dL
TOTAL PROTEIN [2]: 5.57 G/DL
URIC ACID [2]: 1.57 mg/dL
ABSOLUTE BASOPHIL [3]: 0 CELLS/uL
ABSOLUTE EOSINOPHIL [3]: 0 CELLS/uL
ABSOLUTE LYMPHOCYTE [3]: 16402.33 CELLS/uL
ABSOLUTE MONOCYTE [3]: 44.67 CELLS/uL
ABSOLUTE SEGMENTED NEUTROPHIL [3]: 986.33 CELLS/uL
BASOPHIL [3]: 0%
EOSINOPHIL [3]: 0%
ERYTHROCYTE COUNT [3]: 5.74 x10E6/uL
HEMATOCRIT [3]: 35.4%
HEMOGLOBIN [3]: 14.07 G/DL
LEUKOCYTE COUNT [3]: 17.43 x10E3/uL
LYMPHOCYTE [3]: 93.67%
MEAN CORPUSCULAR HEMOGLOBIN [3]: 24.53 pg
MEAN CORPUSCULAR HEMOGLOBIN CONCENTRATION [3]: 39.73 G/DL
MEAN CORPUSCULAR VOLUME [3]: 61.73 fL
MONOCYTE [3]: 0.33%
NEUTROPHIL [3]: 6%
NUCLEATED RED BLOOD CELLS [3]: 0 /100WBC
PLATELET COUNT [3]: 1340 x10E3/uL
ALANINE AMINOTRANSFERASE [3]: 60.33 u/L
ALBUMIN [3]: 4.17 G/DL
ALKALINE PHOSPHATASE [3]: 195 u/L
ASPARTATE AMINOTRANSFERASE [3]: 83 u/L
BLOOD UREA NITROGEN [3]: 14.33 mg/dL
CARBON DIOXIDE [3]: 27 mmol/L
CHLORIDE [3]: 104.33 MEQ/L
CHOLESTEROL [3]: 67.33 mg/dL
CREATINE PHOSPHOKINASE [3]: 394.67 u/L
CREATININE [3]: 0.22 mg/dL
GLUCOSE [3]: 147.67 mg/dL
LACTATE DEHYDROGENASE [3]: 555.67 u/L
LIPASE [3]: 10 u/L
PHOSPHORUS [3]: 11.37 mg/dL
POTASSIUM [3]: 5.87 MEQ/L
SODIUM [3]: 144.67 MEQ/L
TOTAL BILIRUBIN [3]: 0.13 mg/dL
TOTAL PROTEIN [3]: 5.97 G/DL
URIC ACID [3]: 1.67 mg/dL
